Data set [1] can be described thus: Displacement of [3H]ifenprodil from recombinant human GluN1A/GluN2B receptor expressed in mouse L(tk-) cell membranes after 120 mins by microbeta scintillation counting method. (Loss of bound radioactivity is the signal in a displacement assay; it reports binding, not function.)
A short description of data set [2]: n-Octanol-buffer distribution coefficient, log D of the compound at pH 7.4 by mass spectrometry based shake flask method. The format is physicochemical.
Data set [3] deals with T1, Sigma intracellular receptor 2 (Rattus norvegicus, UniProt Q5U3Y7).
T1 sequence (Q5U3Y7 whole entry): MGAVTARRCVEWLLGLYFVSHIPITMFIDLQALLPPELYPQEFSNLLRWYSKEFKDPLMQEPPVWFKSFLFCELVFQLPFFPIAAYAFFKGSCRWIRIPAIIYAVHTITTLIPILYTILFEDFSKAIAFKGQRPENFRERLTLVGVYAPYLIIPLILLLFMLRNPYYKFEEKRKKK
Description: Displacement of [3H]DTG from sigma2 receptor in rat liver membranes after 120 mins by microbeta scintillation counting method. The format is cell membranes, Membrane.

The nature of data set [4]: Selectivity ratio of Ki for sigma1 receptor in guinea pig brain cortex membranes to Ki for recombinant human GluN1A/GluN2B receptor expressed in mouse L(tk-) cell membranes. The format is cell-based.
Data set [5] can be described thus: Selectivity ratio of Ki for sigma2 receptor in rat liver membranes to Ki for recombinant human GluN1A/GluN2B receptor expressed in mouse L(tk-) cell membranes. The format is cell-based.
In data set [6] the target is Sigma non-opioid intracellular receptor 1 (Cavia porcellus, UniProt Q60492).
Sigma non-opioid intracellular receptor 1, sequence (Q60492 whole entry): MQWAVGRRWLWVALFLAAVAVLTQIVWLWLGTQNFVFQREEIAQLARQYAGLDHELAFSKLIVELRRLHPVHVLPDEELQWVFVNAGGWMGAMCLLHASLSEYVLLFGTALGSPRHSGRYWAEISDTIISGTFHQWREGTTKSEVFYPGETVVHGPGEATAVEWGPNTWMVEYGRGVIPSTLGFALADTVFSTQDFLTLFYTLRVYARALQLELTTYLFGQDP
Description: Displacement of [3H]-(+)-pentazocine from sigma1 receptor in guinea pig brain cortex membranes after 120 mins by microbeta scintillation counting method
Data set [7] is described as follows: Antagonist activity at GluN1A/GluN2A receptor (unknown origin) expressed in Xenopus laevis oocytes assessed as inhibition of glutamate/glycine-induced channel current at 1 uM at -70 mV holding potential by two electrode voltage clamp method relative to control. The format is cell-based. The note with it: Homo sapiens. In general terms: In two-electrode clamp one electrode senses voltage and the other passes current.

The species entered for another data set is Homo sapiens. Description: Antagonist activity at glutamate/glycine-stimulated recombinant human GluN1A/GluN2B receptor expressed in mouse L(tk-) cells assessed as protection against receptor overstimulation-induced excitotoxicity at 10 to 100 uM preincubated for 30 mins followed by glutamate/glycine stimulation measured after 6 hrs by LDH release assay relative to control. In kind it is cell-based. On the technique in general: Release of lactate dehydrogenase indicates damage to the cell membrane.

The nature of data set [8]: Selectivity ratio of Ki for PCP binding site of NMDA receptor in pig brain cortex membranes to Ki for recombinant human GluN1A/GluN2B receptor expressed in mouse L(tk-) cell membranes.

This note sets out measurements from ChEMBL document CHEMBL4190266, “Deconstruction - reconstruction approach to analyze the essential structural elements of tetrahydro-3-benzazepine-based antagonists of GluN2B subunit containing NMDA receptors” (Eur J Med Chem, 2017).

Structures are written as SMILES.

Consider `Nc1ccc2c(c1)C(O)CN(CCCCc1ccccc1)CC2` (stereo not drawn), for which the Ki (in general, the dissociation constant of the complex between target and ligand, obtained from inhibition or displacement) in [1] is 1000 nM; in [3] it was 970 nM; in data set [6] it was > 10000 nM. The log distribution coefficient (logD) – broadly, the decadic logarithm of the distribution of all forms, ionised or not, between an organic phase and buffer at a given pH – in data set [2] came out at 1.58. Moreover, the Ratio Ki in data set [4] is > 10; in [5], 1.

For `OC1CN(C2CCN(Cc3ccccc3)CC2)CCc2ccccc21` (stereo not drawn), the Ki in data set [1] was 6 nM; in data set [3], 34 nM; in data set [6], 3.5 nM. Also, the Ratio Ki in [4] turned out to be 0.6; in data set [5], 6. Moreover, the results for the inhibition (in data set [7]; in the data set listed under Homo sapiens) were 13% and < 6%, respectively.

On to `Nc1ccc2c(c1)C(O)CN(CCCCCc1ccccc1)CC2` (stereo not drawn), for which the inhibition constant (Ki) in [1] is 130 nM; in [3] it was 110 nM; in [6], 260 nM. For the same compound, the Ratio Ki in data set [4] stood at 2; in [5] it was 0.9.

Consider `c1ccc(-c2ccc(CN3CCc4ccccc4CC3)cc2)cc1`, for which the Ki turned out to be 75 nM in data set [1], 120 nM in data set [3] and 16 nM in data set [6]. The Ratio Ki in [4] came to 0.2; in data set [5], 2.

With `COc1ccc(C(=O)CCCN2CCc3ccccc3C(O)C2)cc1` (stereo not drawn), the inhibition constant (Ki) in data set [1] is > 1000 nM; in data set [3] it was 1100 nM; in data set [6], > 10000 nM.

Take `O=[N+]([O-])c1ccc2c(c1)C(O)CN(C1CCC(c3ccccc3)CC1)CC2` (mixture of isomers): the Ki in [1] stood at 16 nM; in [3] it was 24 nM; in data set [6], 360 nM. Moreover, the Ratio Ki in data set [4] came to 23; in data set [5] it was 2. The results for the inhibition (in data set [7]; in the data set filed under Homo sapiens) were 4.8% and < 6%, respectively.

`O=[N+]([O-])c1ccc2c(c1)C(O)CN(CCCCOc1ccccc1)CC2` (stereo not drawn): the Ki in [1] came out at 770 nM; in data set [3], 1000 nM; in [6], 1500 nM. Besides, the results for the Ratio Ki in data set [4] and in data set [5] were 2 and 1, respectively.

Take `Oc1ccc2c(c1)CCN(CCCCc1ccccc1)CC2O` (stereo not drawn): the logD in data set [2] was 1.67.

`O=[N+]([O-])c1ccc2c(c1)C(O)CN(CCCCCc1ccccc1)CC2` (stereo not drawn): the inhibitory constant (Ki) in [1] turned out to be 240 nM; in [3] it was 116 nM; in [6], 100 nM. Also, the Ratio Ki in data set [4] turned out to be 0.4; in data set [5], 0.5.

For the compound `O=[N+]([O-])c1ccc2c(c1)C(O)CN(CCCCc1ccccc1)CC2` (stereo not drawn), the Ki in data set [1] was found to be 300 nM; in data set [3], 220 nM; in data set [6], 621 nM. The pH-dependent lipophilicity (logD) in data set [2] amounted to 3.82. Besides, the Ratio Ki in data set [4] was 2; in [5], 0.7.

Consider `O=[N+]([O-])c1ccc2c(c1)C(O)CN(CCc1ccccc1)CC2` (stereo not drawn), for which the Ki in data set [1] was 1600 nM; in data set [3], > 10000 nM; in data set [6] it was 1800 nM. Moreover, the Ratio Ki was 1 in data set [4] and 6 in data set [5].

As for `OC1CN(CCCCCc2ccccc2)CCc2ccccc21` (stereo not drawn), the Ki in data set [1] was 67 nM; in data set [3] it was 119 nM; in [6], 460 nM. Moreover, the figures for the Ratio Ki in data set [4] and in [5] were 7 and 2, respectively.

Regarding `O=C(c1ccccc1)N1CCC(N2CCc3ccccc3C(O)C2)CC1` (stereo not drawn), the results for the Ki in data set [1], in data set [3] and in data set [6] were 890 nM, 1400 nM and 800 nM, respectively. For the same compound, the Ratio Ki stood at 0.9 in [4] and 2 in data set [5].

Regarding `CC(C(O)c1ccc(O)cc1)N1CCC(Cc2ccccc2)CC1` (stereo not drawn) [IFENPRODIL], the Ki in data set [1] is 10 nM. The inhibition (commonly the change of the read-out against control, counted positive when it falls) in data set [7] is 87%.

For the compound `c1ccc(CCCCCN2CCc3ccccc3CC2)cc1`, the Ki in data set [1] is 110 nM; in [3], 170 nM; in data set [6], 48 nM. Moreover, the results for the Ratio Ki in data set [4] and in data set [5] were 0.4 and 1, respectively.

`OC1CN(Cc2ccc(-c3ccccc3)cc2)CCc2ccccc21` (stereo not drawn): the inhibitory constant (Ki) in data set [1] is 210 nM; in data set [3] it was 760 nM; in data set [6], 230 nM. For the same compound, the Ratio Ki in data set [4] was 1; in [5], 4.

Consider `c1ccc(CCCCN2CCc3ccccc3CC2)cc1`, for which the Ki turned out to be 230 nM in data set [1], 35 nM in [3] and 10 nM in [6]. Also, in [2], the pH-dependent lipophilicity (logD) was 3.13. Moreover, the Ratio Ki in data set [4] amounted to 0.04; in [5], 0.15.

Take `O=[N+]([O-])c1ccc2c(c1)C(O)CN(CCCc1ccccc1)CC2` (stereo not drawn): the inhibition constant (Ki) in data set [1] worked out at 110 nM; in data set [3], 300 nM; in data set [6], 1300 nM. In addition, the Ratio Ki came out at 12 in data set [4] and 3 in data set [5].

Consider `O=[N+]([O-])c1ccc2c(c1)C(O)CN(Cc1ccccc1)CC2` (stereo not drawn), for which the Ki in data set [1] was > 1000 nM; in data set [3] it was 4600 nM; in data set [6], 320 nM. For the same compound, the Ratio Ki in data set [4] is < 0.3.

Turning to `OC(CN1CCC(Cc2ccc(F)cc2)CC1)c1ccc(Cl)cc1` (stereo not drawn) [ELIPRODIL], the Ki in [1] was determined as 13 nM.

Turning to `OC1CN(CCCCOc2ccccc2)CCc2ccccc21` (stereo not drawn), the Ki in [1] was 250 nM; in data set [3], 280 nM; in data set [6], > 10000 nM. In addition, the Ratio Ki in data set [4] is > 41; in [5], 1.

For `O=[N+]([O-])c1ccc2c(c1)C(O)CN(Cc1ccc(-c3ccccc3)cc1F)CC2` (stereo not drawn), the Ki is > 1000 nM in [1], 1400 nM in data set [3] and 2800 nM in data set [6].

`O=C(CCCN1CCc2ccccc2C(O)C1)c1ccc(F)cc1` (stereo not drawn): the inhibition constant (Ki) in data set [3] was determined as 61 nM; in data set [6], 1100 nM. For the same compound, the Ratio Ki in data set [4] stood at 4; in data set [5], 0.2.

On to `OC1CN(C2CCC(c3ccccc3)CC2)CCc2ccccc21` (mixture of isomers), for which the values for the Ki in data set [1], in data set [3] and in data set [6] were 2.2 nM, 55 nM and 82 nM, respectively. Also, the Ratio Ki is 37 in [4], 25 in data set [5] and > 4500 in [8]. The values for the inhibition (in data set [7]; in the data set filed under Homo sapiens) were 0.8% and < 6%, respectively.

On to `OC1CN(CCCCc2ccccc2)CCc2ccccc21` (stereo not drawn), for which the logD in data set [2] amounted to 2.7.

As to `OC1CN(CCc2ccccc2)CCc2ccccc21` (stereo not drawn), the Ki in [3] turned out to be 3200 nM; in [6], 1600 nM. Moreover, the Ratio Ki in [4] was found to be 1; in data set [5], 2.
